Results from patent US9283222B2 (priority 2006, dated 2016).

Each compound was assayed against Recombinant Human Poly(ADP-Ribose) Polymerase (PARP), PARP-1 (Homo sapiens (Human), UniProt P09874). Conditions: read-out: PARP-1 (Ki); Table 1; text calls the values EC50s.
Sequence of Recombinant Human Poly(ADP-Ribose) Polymerase (PARP), PARP-1 (P09874 whole entry): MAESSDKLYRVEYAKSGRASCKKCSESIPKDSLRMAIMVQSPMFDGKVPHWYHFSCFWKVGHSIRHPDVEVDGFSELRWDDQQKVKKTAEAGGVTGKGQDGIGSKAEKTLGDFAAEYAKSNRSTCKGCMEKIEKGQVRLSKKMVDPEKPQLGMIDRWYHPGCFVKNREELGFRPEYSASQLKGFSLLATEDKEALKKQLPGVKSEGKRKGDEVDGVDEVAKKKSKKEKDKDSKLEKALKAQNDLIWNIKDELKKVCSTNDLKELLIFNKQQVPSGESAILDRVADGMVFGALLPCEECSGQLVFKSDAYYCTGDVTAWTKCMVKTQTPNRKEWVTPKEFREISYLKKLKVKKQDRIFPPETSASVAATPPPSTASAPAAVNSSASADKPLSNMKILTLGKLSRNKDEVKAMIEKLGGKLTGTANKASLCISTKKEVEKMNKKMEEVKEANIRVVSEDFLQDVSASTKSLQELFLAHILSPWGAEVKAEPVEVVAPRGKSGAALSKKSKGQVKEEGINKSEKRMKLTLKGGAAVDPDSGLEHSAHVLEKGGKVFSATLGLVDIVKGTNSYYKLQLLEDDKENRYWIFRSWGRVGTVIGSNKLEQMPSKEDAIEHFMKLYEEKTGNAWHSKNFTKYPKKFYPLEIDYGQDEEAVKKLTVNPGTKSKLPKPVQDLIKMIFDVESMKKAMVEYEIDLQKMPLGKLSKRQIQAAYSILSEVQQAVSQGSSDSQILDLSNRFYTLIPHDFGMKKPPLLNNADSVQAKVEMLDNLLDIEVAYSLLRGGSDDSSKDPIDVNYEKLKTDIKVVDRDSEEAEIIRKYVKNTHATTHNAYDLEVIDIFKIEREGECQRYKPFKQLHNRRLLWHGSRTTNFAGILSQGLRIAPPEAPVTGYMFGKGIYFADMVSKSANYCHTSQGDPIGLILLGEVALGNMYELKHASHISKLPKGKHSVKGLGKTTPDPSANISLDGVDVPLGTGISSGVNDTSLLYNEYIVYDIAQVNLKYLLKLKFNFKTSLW

| SMILES | Ki [nM] |
| --- | --- |
| O=C(c1cc(Cc2n[nH]c(=O)c3c2CCCC3)ccc1F)N1CCN(c2ccccc2Cl)CC1 [Example 517, 4-(3-{[4-(2-chlorophenyl)piperazin-1-yl]carbonyl}-4-fluorobenzyl)-5,6,7,8-tetrahydrophthalazin-1(2H)-one] | 5 |
| COc1ccc(CCNC(=O)c2cccc(Cc3n[nH]c(=O)c4c3CCCC4)c2)cc1OC [Example 405, N-(2-(3,4-dimethoxyphenyl)ethyl)-3-((4-oxo-3,4,5,6,7,8-hexahydrophthalazin-1-yl)methyl)benzamide] | 19 |
| CSc1ccc(Cl)c(C(=O)Nc2cccc(Cc3n[nH]c(=O)c4c3CCCC4)c2)c1 [Example 237, 2-chloro-5-(methylthio)-N-(3-((4-oxo-3,4,5,6,7,8-hexahydrophthalazin-1-yl)methyl)phenyl)benzamide] | 68 |
| O=C(NC1CNC1)c1cccc(Cc2n[nH]c(=O)c3c2CCCC3)c1 [Example 56, N-azetidin-3-yl-3-((4-oxo-3,4,5,6,7,8-hexahydrophthalazin-1-yl)methyl)benzamide] | 5 |
| CNC(=O)c1ccc(Cc2n[nH]c(=O)c3c2CCCC3)s1 [Example 110, N-methyl-5-((4-oxo-3,4,5,6,7,8-hexahydrophthalazin-1-yl)methyl)thiophene-2-carboxamide] | 372 |
| COc1ccc(CCN(C)C(=O)c2cccc(Cc3n[nH]c(=O)c4c3CCCC4)c2)cc1OC [Example 427, N-(2-(3,4-dimethoxyphenyl)ethyl)-N-methyl-3-((4-oxo-3,4,5,6,7,8-hexahydrophthalazin-1-yl)methyl)benzamide] | 22 |
| O=C(Nc1cccc(Cc2n[nH]c(=O)c3c2CCCC3)c1)C1CNC1 [Example 113, N-(3-((4-oxo-3,4,5,6,7,8-hexahydrophthalazin-1-yl)methyl)phenyl)azetidine-3-carboxamide] | 6 |
| O=C(NC1CCN(C(=O)c2cn[nH]c2)CC1)c1cc(Cc2n[nH]c(=O)c3c2NCCC3)ccc1F [Example 734, 2-fluoro-5-[(5-oxo-1,2,3,4,5,6-hexahydropyrido[2,3-d]pyridazin-8-yl)methyl]-N-[1-(1H-pyrazol-4-ylcarbonyl)piperidin-4-yl]benzamide] | 9 |
| O=C(Nc1cccc(Cc2n[nH]c(=O)c3c2CCCC3)c1)c1cccnc1O [Example 213, 2-hydroxy-N-(3-((4-oxo-3,4,5,6,7,8-hexahydrophthalazin-1-yl)methyl)phenyl)nicotinamide] | 82 |
| O=C(Nc1ccc2c(c1)OCCO2)c1cccc(Cc2n[nH]c(=O)c3c2CCCC3)c1 [Example 358, N-2,3-dihydro-1,4-benzodioxin-6-yl-3-((4-oxo-3,4,5,6,7,8-hexahydrophthalazin-1-yl)methyl)benzamide] | 66 |
| O=C(c1cncnc1)N1CCCN(C(=O)c2cc(Cc3n[nH]c(=O)c4c3NCCC4)ccc2F)CC1 [Example 685, 8-(4-fluoro-3-{[4-(pyrimidin-5-ylcarbonyl)-1,4-diazepan-1-yl]carbonyl}benzyl)-2,3,4,6-tetrahydropyrido[2,3-d]pyridazin-5(1H)-one] | 2.2 |
| CN(C(=O)c1cc(Cc2n[nH]c(=O)c3c2NCCC3)ccc1F)C1CCN(C(=O)c2ccco2)CC1 [Example 715, 2-fluoro-N-[1-(2-furoyl)piperidin-4-yl]-N-methyl-5-[(5-oxo-1,2,3,4,5,6-hexahydropyrido[2,3-d]pyridazin-8-yl)methyl]benzamide] | 4 |
| CCCOc1ccc(NC(=O)c2cccc(Cc3n[nH]c(=O)c4c3CCCC4)c2)cc1 [Example 355, 3-((4-oxo-3,4,5,6,7,8-hexahydrophthalazin-1-yl)methyl)-N-(4-propoxyphenyl)benzamide] | 92 |
| COc1ccc(OC)c(CCNC(=O)c2cccc(Cc3n[nH]c(=O)c4c3CCCC4)c2)c1 [Example 404, N-(2-(2,5-dimethoxyphenyl)ethyl)-3-((4-oxo-3,4,5,6,7,8-hexahydrophthalazin-1-yl)methyl)benzamide] | 55 |
| O=C(Nc1ccc(Cc2n[nH]c(=O)c3c2CCCC3)cn1)c1ccccc1 [Example 106, N-(5-((4-oxo-3,4,5,6,7,8-hexahydrophthalazin-1-yl)methyl)pyridin-2-yl)benzamide] | 290 |
| COc1ccc(NC(C)=O)cc1NC(=O)c1cccc(Cc2n[nH]c(=O)c3c2CCCC3)c1 [Example 357, N-(5-(acetylamino)-2-methoxyphenyl)-3-((4-oxo-3,4,5,6,7,8-hexahydrophthalazin-1-yl)methyl)benzamide] | 402 |

Further compounds by falling Ki, results first:

| Ki [nM] | SMILES |
| --- | --- |
| 1710 | CC(Cc1n[nH]c(=O)c2c1CCCC2)c1cccc(-c2cccc(C(=O)NCCN(C)C)c2)c1 (stereo not drawn) [Example 282, N-(2-(dimethylamino)ethyl)-3′-(1-methyl-2-(4-oxo-3,4,5,6,7,8-hexahydrophthalazin-1-yl)ethyl)-1,1′-biphenyl-3-carboxamide] |
| 678 | CC[C@H](C(=O)Nc1cccc(Cc2n[nH]c(=O)c3c2CCCC3)c1)c1ccccc1 [Example 146, (2S)-N-(3-((4-oxo-3,4,5,6,7,8-hexahydrophthalazin-1-yl)methyl)phenyl)-2-phenylbutanamide] |
| 285 | O=C(Nc1cccc(Cc2n[nH]c(=O)c3c2CCCC3)c1)c1ccccc1Nc1ccccc1 [Example 240, 2-anilino-N-(3-((4-oxo-3,4,5,6,7,8-hexahydrophthalazin-1-yl)methyl)phenyl)benzamide] |
| 154 | O=C(Nc1cccc(Cc2n[nH]c(=O)c3c2CCCC3)c1)c1cc(F)cc(F)c1 [Example 184, 3,5-difluoro-N-(3-((4-oxo-3,4,5,6,7,8-hexahydrophthalazin-1-yl)methyl)phenyl)benzamide] |
| 125 | COc1ccc(OC)c(CCC(=O)Nc2cccc(Cc3n[nH]c(=O)c4c3CCCC4)c2)c1 [Example 144, 3-(2,5-dimethoxyphenyl)-N-(3-((4-oxo-3,4,5,6,7,8-hexahydrophthalazin-1-yl)methyl)phenyl)propanamide] |
| 122 | O=c1[nH]nc(Cc2ccc(F)c(Cl)c2)c2c1CCCN2 [Example 450, 8-(3-chloro-4-fluorobenzyl)-2,3,4,6-tetrahydropyrido(2,3-d)pyridazin-5(1H)-one] |
| 82 | O=C(Cc1cccnc1)Nc1cccc(Cc2n[nH]c(=O)c3c2CCCC3)c1 [Example 216, N-(3-((4-oxo-3,4,5,6,7,8-hexahydrophthalazin-1-yl)methyl)phenyl)-2-pyridin-3-ylacetamide] |
| 65 | Cc1ccc(C)c(CCNC(=O)c2cccc(Cc3n[nH]c(=O)c4c3CCCC4)c2)c1 [Example 399, N-(2-(2,5-dimethylphenyl)ethyl)-3-((4-oxo-3,4,5,6,7,8-hexahydrophthalazin-1-yl)methyl)benzamide] |
| 42 | Cc1cccc(CCNC(=O)c2cccc(Cc3n[nH]c(=O)c4c3CCCC4)c2)c1 [Example 377, N-(2-(3-methylphenyl)ethyl)-3-((4-oxo-3,4,5,6,7,8-hexahydrophthalazin-1-yl)methyl)benzamide] |
| 34 | CCN(CCN(C)C)C(=O)c1cccc(Cc2n[nH]c(=O)c3c2CCCC3)c1 [Example 418, N-(2-(dimethylamino)ethyl)-N-ethyl-3-((4-oxo-3,4,5,6,7,8-hexahydrophthalazin-1-yl)methyl)benzamide] |
| 23 | O=C(Nc1ccc2ncccc2c1)c1cccc(Cc2n[nH]c(=O)c3c2CCCC3)c1 [Example 366, 3-((4-oxo-3,4,5,6,7,8-hexahydrophthalazin-1-yl)methyl)-N-quinolin-6-ylbenzamide] |
| 22 | O=C(NCCc1cccc(C(F)(F)F)c1)c1cccc(Cc2n[nH]c(=O)c3c2CCCC3)c1 [Example 394, 3-((4-oxo-3,4,5,6,7,8-hexahydrophthalazin-1-yl)methyl)-N-(2-(3-(trifluoromethyl)phenyl)ethyl)benzamide] |
| 13 | O=C(c1cc(Cc2n[nH]c(=O)c3c2CCCC3)ccc1F)N1CCN(c2ccccc2F)CC1 [Example 523, 4-(4-fluoro-3-{[4-(2-fluorophenyl)piperazin-1-yl]carbonyl}benzyl)-5,6,7,8-tetrahydrophthalazin-1(2H)-one] |
| 11 | CN(C(=O)c1cc(Cc2n[nH]c(=O)c3c2NCCC3)ccc1F)C1CCN(C(=O)OC(C)(C)C)CC1 [Example 698, tert-butyl 4-[{2-fluoro-5-[(5-oxo-1,2,3,4,5,6-hexahydropyrido[2,3-d]pyridazin-8-yl)methyl]benzoyl}(methyl)amino]piperidine-1-carboxylate] |
| 5 | NC(=O)C1CCCN(C(=O)c2cc(Cc3n[nH]c(=O)c4c3NCCC4)ccc2F)C1 (stereo not drawn) [Example 519, 1-{2-fluoro-5-[(5-oxo-1,2,3,4,5,6-hexahydropyrido[2,3-d]pyridazin-8-yl)methyl]benzoyl}piperidine-3-carboxamide] |
| 3 | CN1CCCN(C(=O)c2cc(Cc3n[nH]c(=O)c4c3NCCC4)ccc2F)CC1 [Example 509, 8-{4-fluoro-3-[(4-methyl-1,4-diazepan-1-yl)carbonyl]benzyl}-2,3,4,6-tetrahydropyrido[2,3-d]pyridazin-5(1H)-one] |
| 2.6 | CN(C(=O)c1cc(Cc2n[nH]c(=O)c3c2NCCC3)ccc1F)C1CCN(C(=O)c2cn[nH]c2)CC1 [Example 718, 2-fluoro-N-methyl-5-[(5-oxo-1,2,3,4,5,6-hexahydropyrido[2,3-d]pyridazin-8-yl)methyl]-N-[1-(1H-pyrazol-4-ylcarbonyl)piperidin-4-yl]benzamide] |
| 2 | O=C(c1cnccn1)N1CCCN(C(=O)c2cc(Cc3n[nH]c(=O)c4c3NCCC4)ccc2F)CC1 [Example 693, 8-(4-fluoro-3-{[4-(pyrazin-2-ylcarbonyl)-1,4-diazepan-1-yl]carbonyl}benzyl)-2,3,4,6-tetrahydropyrido[2,3-d]pyridazin-5(1H)-one] |
| 1.8 | O=C(NC1CCN(C(=O)c2ccc3[nH]cnc3c2)CC1)c1cc(Cc2n[nH]c(=O)c3c2NCCC3)ccc1F [Example 713, N-[1-(1H-benzimidazol-5-ylcarbonyl)piperidin-4-yl]-2-fluoro-5-[(5-oxo-1,2,3,4,5,6-hexahydropyrido[2,3-d]pyridazin-8-yl)methyl]benzamide] |
| 1.4 | O=C(c1cscn1)N1CCN(C(=O)c2cc(Cc3n[nH]c(=O)c4c3NCCC4)ccc2F)CC1 [Example 705, 8-(4-fluoro-3-{[4-(1,3-thiazol-4-ylcarbonyl)piperazin-1-yl]carbonyl}benzyl)-2,3,4,6-tetrahydropyrido[2,3-d]pyridazin-5(1H)-one] |
